One assay addresses LZK (Homo sapiens (Human), UniProt O43283). The experiment in a line: LZK biochemical assay (TR-FRET, MKK7 phosphorylation). As to the method: LZK assay is a biochemical assay format designed to screen for inhibitors of LZK. Enzymatic activity of LZK was measured by monitoring phosphorylation of the physiological substrate MKK7 (MAP2K7, Dual specificity mitogen-activated protein kinase kinase 7). Phosphorylation was detected by a TR-FRET system whereby His-tagged MKK7 was labeled by a XL665-labeled anti-His antibody (FRET acceptor, emission 665 nm). LZK phosphorylates MKK7 at T275/S277 which were detected by an Eu-labeled anti-phospho-MKK7 (T275/S277) antibody (FRET donor, excitation 340 nm). Phosphorylation of MKK7 results in an increased TR-FRET signal (Ratio XL665-channel/Eu-channel) and inhibition of enzymatic activity of LZK decreases the TR-FRET signal.
Assay Protocol for 384 low volume MTP format: 1 μl of test compound was pipetted into test plate; +5 μl LZK solution (10 nM LZK, catalytic domain, Carna Biosiences in assay buffer); +5 μl substrate solution (15 nM MKK7, LDB; 15 μM ATP, in assay buffer); 90 min incubation at RT; +5 μl detection mix (20 nM XL665-labeled anti-His antibody, Cisbio; 0.4 nM Eu-labeled anti-phospho-MKK7 (T275/S277), Cisbio/Millipore in detection buffer), 16 h incubation at 32° C.; endpoint measurement BMG (HTRF).
(§1) All indicated concentrations final concentrations.
Assay buffer (384 format): 50 mM Hepes pH 7.5, 10 mM MgCl2, 1 mM EGTA, 1 mM DTT, 0.01% Triton X-100, 0.01% BSA, 1:500 Smart Block.
(§2) Detection buffer: 25 mM Tris/HCl pH 7.5, 100 mM EDTA, 100 mM NaCl, 200 mM KF, 0.01% Tween 20, 1:500 Smart Block.
A general note: TR-FRET usually uses a lanthanide donor and a delayed reading to cut background.

The next assay has as its target DLK (Homo sapiens (Human), UniProt Q12852). Kind of assay: DLK biochemical assay (TR-FRET, MKK7 phosphorylation). On the procedure: DLK assay is a biochemical assay format designed to screen for inhibitors of DLK. Enzymatic activity of DLK was measured by monitoring phosphorylation of the physiological substrate MKK7 (MAP2K7, Dual specificity mitogen-activated protein kinase kinase 7). Phosphorylation was detected by a TR-FRET system whereby His-tagged MKK7 was labeled by a XL665-labeled anti-His antibody (FRET acceptor, emission 665 nm). DLK phosphorylates MKK7 at T275/S277, which was detected by an Eu-labeled anti-phospho-MKK7 (T275/S277) antibody (F RET donor, excitation 340 nm). Phosphorylation of MKK7 results in an increased TR-FRET signal (Ratio XL665-channel/Eu-channel) and inhibition of enzymatic activity of DLK decreases the TR-FRET signal.
Assay Protocol for 1536 MTP format: test compounds were predispensed (60 nl) in test plates; +3 μl DLK solution (10 nM DLK, catalytic domain, Carna Biosiences, 0.6 mM DTT in assay buffer); +2 μl substrate solution (15 nM MKK7, LDB; 60 μM ATP; 0.4 mM DTT in assay buffer); 90 min incubation at RT; +2 μl detection mix (5 nM XL665-labeled anti-His antibody, Cisbio; 0.1 nM Eu-labeled anti-phospho-MKK7 (T275/S277), Cisbio/Millipore in detection buffer); 16 h incubation at 37° C.; endpoint measurement BMG (HTRF).
Assay Protocol for 384 low volume MTP format: 1 μl of test compounds were pipetted into test plate; +5 μl DLK solution (10 nM DLK, catalytic domain, Carna Biosiences in assay buffer); +5 μl substrate solution (15 nM MKK7, LDB; 60 μM ATP, in assay buffer); 90 min incubation at RT; +9 μl detection mix (20 nM XL665-labeled anti-His antibody, Cisbio; 0.4 nM Eu-labeled anti-phospho-MKK7 (T275/S277), Cisbio/Millipore in detection buffer); 16 h incubation at 4° C.; endpoint measurement BMG (HTRF).
as §1
Assay buffer (384 format): 50 mM Hepes pH 7.5, 10 mM MgCl2, 1 mM EGTA, 1 mM DTT, 0,01% Triton X-100, 0.01% BSA, 1:500 Smart Block.
as §2

Each structure is given as a SMILES string.

DLK, sequence (Q12852 1-520): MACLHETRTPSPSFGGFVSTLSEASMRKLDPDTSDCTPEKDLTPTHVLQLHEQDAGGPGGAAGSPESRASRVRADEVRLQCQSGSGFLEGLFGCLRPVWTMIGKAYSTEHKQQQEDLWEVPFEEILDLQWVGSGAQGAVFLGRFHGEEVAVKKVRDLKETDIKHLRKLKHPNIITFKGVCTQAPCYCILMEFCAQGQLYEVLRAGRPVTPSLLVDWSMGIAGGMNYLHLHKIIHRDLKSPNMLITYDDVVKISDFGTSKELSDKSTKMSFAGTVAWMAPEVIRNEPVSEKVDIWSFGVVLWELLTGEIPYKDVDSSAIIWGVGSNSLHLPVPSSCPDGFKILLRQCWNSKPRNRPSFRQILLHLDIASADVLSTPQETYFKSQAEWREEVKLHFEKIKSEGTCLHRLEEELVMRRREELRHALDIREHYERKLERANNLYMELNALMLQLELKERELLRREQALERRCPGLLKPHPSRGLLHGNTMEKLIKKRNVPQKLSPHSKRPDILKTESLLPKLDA
LZK, sequence (O43283 168-409): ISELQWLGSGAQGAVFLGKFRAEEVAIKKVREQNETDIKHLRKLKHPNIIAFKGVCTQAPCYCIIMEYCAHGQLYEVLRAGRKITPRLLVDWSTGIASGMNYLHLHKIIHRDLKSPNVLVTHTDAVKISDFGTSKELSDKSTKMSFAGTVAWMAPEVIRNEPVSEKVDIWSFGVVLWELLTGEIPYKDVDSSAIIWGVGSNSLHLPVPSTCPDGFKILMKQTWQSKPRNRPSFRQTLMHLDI

In the case of `COc1cccc(CNC(=O)c2cc(-c3cc(C(=O)N[C@@H](C)CO)c4nc(N)nn4c3)cs2)c1` [Compound 31], the IC50 amounted to 170 nM against LZK and 13 nM against DLK.

For `CC(C)NC(=O)c1cc(-c2csc(C(=O)NCc3nc4ccccc4o3)c2)cn2nc(N)nc12` [Compound 35], the results for the IC50 against LZK and on DLK were 120 nM and 32 nM, respectively.

As for `Nc1nc2c(C(=O)NC3CCNC3)cc(-c3csc(C(=O)NCc4ccccc4)c3)cn2n1` (centres unmarked) [Compound 36], the IC50 against LZK was determined as 840 nM; against DLK, 230 nM.

For the compound `COc1cccc(CNC(=O)c2cc(-c3cc(C(=O)NC4CCNC4)c4nc(N)nn4c3)cs2)c1` (centres unmarked) [Compound 37], the values for the half-inhibitory concentration (IC50) against LZK and on DLK were 1250 nM and 220 nM, respectively.

As for `Nc1nc2c(C(=O)NC3CNC(=O)C3)cc(-c3csc(C(=O)NCc4ccccc4)c3)cn2n1` (centres unmarked) [Compound 38], the IC50 against LZK came to 130 nM; against DLK, 17 nM.

In the case of `C[C@@H](CO)NC(=O)c1cc(-c2csc(C(=O)NC3CCCCC3)c2)cn2nc(N)nc12` [Compound 39], the results for the IC50 at LZK and on DLK were 590 nM and 37.5 nM, respectively.

As for `C[C@@H](CO)NC(=O)c1cc(-c2csc(C(=O)NCc3nc4ccccc4o3)c2)cn2nc(N)nc12` [Compound 40], the IC50 on LZK came out at 380 nM; against DLK, 39 nM.

As for `NC(=O)c1cc(-c2csc(C(=O)NCc3ccc(F)cc3)c2)cn2nc(N)nc12` [Compound 42], the IC50 was 480 nM against LZK and 70 nM on DLK.

On to `C[C@H](NC(=O)c1cc(-c2cc(C(=O)NC3CC3)c3nc(N)nn3c2)cs1)c1ccccc1` [Compound 44], for which the IC50 against LZK is 1400 nM; at DLK, 47 nM.

As for `C[C@H](NC(=O)c1cc(-c2cc(C(=O)NC3CC3)c3nc(N)nn3c2)cs1)c1ccc(F)cc1` [Compound 45], the figures for the IC50 on LZK and at DLK were 430 nM and 24 nM, respectively.

Turning to `Nc1nc2c(C(=O)NC3CC3)cc(-c3csc(C(=O)NCc4ccc(F)cc4)c3)cn2n1` [Compound 46], the results for the IC50 against LZK and against DLK were 1200 nM and 360 nM, respectively.

Take `Nc1nc2c(C(=O)NC3CCC3)cc(-c3csc(C(=O)NCc4ccccc4)c3)cn2n1` [Compound 52]: the values for the IC50 on LZK and on DLK were 235 nM and 20.5 nM, respectively.

With `Nc1nc2c(C(=O)NCC(F)(F)F)cc(-c3csc(C(=O)NCc4ccccc4)c3)cn2n1` [Compound 53], the figures for the IC50 against LZK and on DLK were 6100 nM and 280 nM, respectively.

Take `Nc1nc2c(C(=O)NC3CC3)cc(-c3csc(C(=O)NCc4ccccc4)c3)cn2n1` [Compound 56]: the IC50 on LZK is 2300 nM; against DLK, 120 nM.

Consider `Nc1nc2c(C(=O)NC3CCC3)cc(-c3csc(C(=O)NCc4ccc(F)cc4)c3)cn2n1` [Compound 58], for which the IC50 against LZK was determined as 330 nM; at DLK, 29.5 nM.

Consider `C[C@H](NC(=O)c1cc(-c2cc(C(=O)NC3CCC3)c3nc(N)nn3c2)cs1)c1ccccc1` [Compound 59], for which the IC50 worked out at 255 nM against LZK and 4.35 nM against DLK.

As to `C[C@H](NC(=O)c1cc(-c2cc(C(=O)NC3CCC3)c3nc(N)nn3c2)cs1)c1ccc(F)cc1` [Compound 60], the IC50 against LZK stood at 295 nM; against DLK, 5.25 nM.

For the compound `Nc1nc2c(C(=O)NCC(F)(F)F)cc(-c3csc(C(=O)NCc4ccc(F)cc4)c3)cn2n1` [Compound 61], the IC50 against LZK was found to be 3700 nM; against DLK it was 570 nM.

On to `C[C@H](NC(=O)c1cc(-c2cc(C(=O)NCC(F)(F)F)c3nc(N)nn3c2)cs1)c1ccccc1` [Compound 62], for which the IC50 came out at 10000 nM against LZK and 120 nM against DLK.

Regarding `C[C@H](NC(=O)c1cc(-c2cc(C(=O)NCC(F)(F)F)c3nc(N)nn3c2)cs1)c1ccc(F)cc1` [Compound 63], the values for the concentration for half-maximal inhibition (IC50) against LZK and against DLK were 4600 nM and 120 nM, respectively.

As to `Nc1nc2c(C(=O)NC3COC3)cc(-c3csc(C(=O)NCc4ccccc4)c3)cn2n1` [Compound 64], the results for the IC50 against LZK and on DLK were 7000 nM and 200 nM, respectively.

`C[C@H](NC(=O)c1cc(-c2cc(C(=O)NC3COC3)c3nc(N)nn3c2)cs1)c1ccccc1` [Compound 65]: the IC50 against LZK is 19000 nM; against DLK, 100 nM.

A word on the IC50: it is the concentration that gives 50% inhibition. A higher IC50 goes with weaker potency.

For the origin of these results see patent US20230382904A1, “SUBSTITUTED 4-([1,2,4]TRIAZOLO[1,5-a]PYRIDIN-6-YL)THIOPHENE-2-CARBOXAMIDE DERIVATIVES AND USE THEREOF” (The Johns Hopkins University, priority 2020, published 2023).
